In PMC5843810, “18th European Symposium on Radiopharmacy and Radiopharmaceuticals” (EJNMMI Radiopharmacy and Chemistry, 2016):
Like-named read-outs stand apart in the source and are kept apart here. Where a SMILES comes first, the peptide text is derived from it. Bridges are numbered along the chain shown (N, C = ends). [ ]: non-standard residue; d: D form. Ahx = NCCCCCC(=O)O; βAla = NCCC(=O)O

Legend:
[1] = healthy Balb/c mice n=5, i.v., 1h p.i.
Description: The biodistribution of such prepared 68Ga-PSMA-11 was investigated in healthy Balb/c mice (n=5) after intravenous injection of 0.1mL (38 MBq/mL) (at 15, 30, 60 and 120min).

MC1R = biological target: T1, MC1R (Mus musculus, UniProt Q01727); assay: MC1R binding affinity in B16/F10 melanoma cells; conditions: unlabelled peptides
T1 construct: endogenous in cells; host or cells: B16/F10
T1 sequence (Q01727 whole entry): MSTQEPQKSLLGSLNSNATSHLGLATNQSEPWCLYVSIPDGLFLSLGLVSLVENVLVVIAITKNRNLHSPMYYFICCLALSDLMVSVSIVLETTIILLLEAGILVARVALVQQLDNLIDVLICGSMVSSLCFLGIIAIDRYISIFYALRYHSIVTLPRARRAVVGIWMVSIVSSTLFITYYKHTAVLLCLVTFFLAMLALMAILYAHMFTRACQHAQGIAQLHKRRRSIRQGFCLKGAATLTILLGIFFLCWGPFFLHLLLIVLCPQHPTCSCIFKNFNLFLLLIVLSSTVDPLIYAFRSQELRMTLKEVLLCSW

GRP receptors = GRP receptors (Homo sapiens, UniProt P30550); assay: GRP receptor affinity of PD-410; format: binding
GRP receptors, sequence (P30550 whole entry): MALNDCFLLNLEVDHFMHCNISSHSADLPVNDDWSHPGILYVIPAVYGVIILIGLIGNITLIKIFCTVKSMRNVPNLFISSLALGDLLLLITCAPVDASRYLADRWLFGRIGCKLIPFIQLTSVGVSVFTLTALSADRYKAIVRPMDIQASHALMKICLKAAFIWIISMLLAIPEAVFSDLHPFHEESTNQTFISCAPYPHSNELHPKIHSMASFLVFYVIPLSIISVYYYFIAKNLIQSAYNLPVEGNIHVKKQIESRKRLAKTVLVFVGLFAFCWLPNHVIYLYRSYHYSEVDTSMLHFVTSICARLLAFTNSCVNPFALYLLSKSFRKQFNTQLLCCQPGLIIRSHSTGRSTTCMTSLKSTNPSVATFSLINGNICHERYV
Text: Introduction: The Gastrin Releasing Peptide (GRP) receptor has high expression on prostate cancer cells. Consequently, bombesin, a 14-amino acid peptide that binds with high affinity to GRP receptors, has been widely studied for the development of radiopeptides for application in prostate cancer imaging. To overcome some limitations of radiolabelled peptides, we developed a small molecule non-peptidic radiotracer targeting GRP receptors. […] The aim of the present study is to develop a non-peptidic fluorine-18 PET radioligand with antagonist properties, for visualization of GRP receptors.

[2] = test system: human breast cancer cell lines; set-up: method as in not given; conditions: ref not given; cited from earlier work
Text: Introduction: Substituted benzotiazoles (BT) are a class of compounds with high affinity and selectivity to aryl hydrocarbon receptor (AhR), a receptor often expressed in breast cancer tissue.

HDAC6 [3] = biological target: T2, HDAC6 (Rattus norvegicus, UniProt A0A8I6GM68); assay: Autoradiography on Wistar rat brain tissue; format: binding; conditions: rat brain slices, 100 μM
T2 construct: wild-type Wistar rat brain tissue; from tissue; host or cells: wild-type Wistar rat brain slices
T2 sequence (A0A8I6GM68 whole entry): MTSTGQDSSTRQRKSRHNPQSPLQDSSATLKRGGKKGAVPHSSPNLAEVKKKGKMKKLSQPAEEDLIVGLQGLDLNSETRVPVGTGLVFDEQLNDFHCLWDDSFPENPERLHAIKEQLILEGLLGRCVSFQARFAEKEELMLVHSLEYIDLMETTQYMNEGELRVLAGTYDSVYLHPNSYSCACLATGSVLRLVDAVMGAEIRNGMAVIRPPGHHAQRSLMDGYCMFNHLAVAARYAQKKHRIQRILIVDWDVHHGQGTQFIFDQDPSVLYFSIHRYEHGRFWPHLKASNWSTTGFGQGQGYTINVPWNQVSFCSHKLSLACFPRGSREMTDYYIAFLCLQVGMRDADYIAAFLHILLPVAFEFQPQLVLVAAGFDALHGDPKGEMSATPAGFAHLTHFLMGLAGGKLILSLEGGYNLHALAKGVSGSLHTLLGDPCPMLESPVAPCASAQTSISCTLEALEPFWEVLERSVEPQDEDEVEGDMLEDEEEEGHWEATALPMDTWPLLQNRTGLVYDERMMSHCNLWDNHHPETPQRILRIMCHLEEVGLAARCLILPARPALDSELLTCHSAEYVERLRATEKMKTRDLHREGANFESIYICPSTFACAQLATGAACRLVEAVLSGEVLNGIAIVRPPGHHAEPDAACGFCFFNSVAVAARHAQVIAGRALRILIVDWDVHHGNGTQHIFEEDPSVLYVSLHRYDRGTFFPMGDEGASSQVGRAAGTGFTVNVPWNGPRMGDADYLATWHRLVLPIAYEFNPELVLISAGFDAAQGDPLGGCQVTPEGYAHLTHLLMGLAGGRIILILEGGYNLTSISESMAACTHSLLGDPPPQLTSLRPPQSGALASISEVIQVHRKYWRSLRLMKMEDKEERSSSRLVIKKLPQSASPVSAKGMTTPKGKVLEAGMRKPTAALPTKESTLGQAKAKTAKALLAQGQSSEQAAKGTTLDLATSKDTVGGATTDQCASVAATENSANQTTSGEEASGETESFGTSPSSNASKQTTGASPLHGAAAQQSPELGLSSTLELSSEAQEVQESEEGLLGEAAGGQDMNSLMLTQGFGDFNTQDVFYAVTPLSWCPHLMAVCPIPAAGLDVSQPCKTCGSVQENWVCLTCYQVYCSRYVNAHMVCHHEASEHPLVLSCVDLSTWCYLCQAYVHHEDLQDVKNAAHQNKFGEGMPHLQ
Description: (§1) The biodistribution was studied in NMRI-mice at 2, 10, 30 and 60 min (n = 3/time point) post injection (p.i.). Organs and tissues were harvested and radioactivity was counted in a gamma-counter. […] Slices were incubated with 18.5 MBq/400μL (brain) or 18.5 MBq/250 μL (tumor) of tracer with/without 100 μM of cold authentic reference compound (KB631) or non-structural related pan-HDAC inhibitor Suberoylanilide hydroxamic acid (SAHA).

HDAC6 [4] = biological target: T3, HDAC6 (Homo sapiens, UniProt Q9UBN7); assay: Autoradiography on PC3/LNCaP prostate tumor slices; format: binding; conditions: 100 μM
T3 construct: wild-type Wistar rat brain tissue and PC3/LNCaP prostate tumor slices; from tissue; host or cells: PC3 and LNCaP prostate tumour slices (xenografts)
T3 sequence (Q9UBN7 1-1215): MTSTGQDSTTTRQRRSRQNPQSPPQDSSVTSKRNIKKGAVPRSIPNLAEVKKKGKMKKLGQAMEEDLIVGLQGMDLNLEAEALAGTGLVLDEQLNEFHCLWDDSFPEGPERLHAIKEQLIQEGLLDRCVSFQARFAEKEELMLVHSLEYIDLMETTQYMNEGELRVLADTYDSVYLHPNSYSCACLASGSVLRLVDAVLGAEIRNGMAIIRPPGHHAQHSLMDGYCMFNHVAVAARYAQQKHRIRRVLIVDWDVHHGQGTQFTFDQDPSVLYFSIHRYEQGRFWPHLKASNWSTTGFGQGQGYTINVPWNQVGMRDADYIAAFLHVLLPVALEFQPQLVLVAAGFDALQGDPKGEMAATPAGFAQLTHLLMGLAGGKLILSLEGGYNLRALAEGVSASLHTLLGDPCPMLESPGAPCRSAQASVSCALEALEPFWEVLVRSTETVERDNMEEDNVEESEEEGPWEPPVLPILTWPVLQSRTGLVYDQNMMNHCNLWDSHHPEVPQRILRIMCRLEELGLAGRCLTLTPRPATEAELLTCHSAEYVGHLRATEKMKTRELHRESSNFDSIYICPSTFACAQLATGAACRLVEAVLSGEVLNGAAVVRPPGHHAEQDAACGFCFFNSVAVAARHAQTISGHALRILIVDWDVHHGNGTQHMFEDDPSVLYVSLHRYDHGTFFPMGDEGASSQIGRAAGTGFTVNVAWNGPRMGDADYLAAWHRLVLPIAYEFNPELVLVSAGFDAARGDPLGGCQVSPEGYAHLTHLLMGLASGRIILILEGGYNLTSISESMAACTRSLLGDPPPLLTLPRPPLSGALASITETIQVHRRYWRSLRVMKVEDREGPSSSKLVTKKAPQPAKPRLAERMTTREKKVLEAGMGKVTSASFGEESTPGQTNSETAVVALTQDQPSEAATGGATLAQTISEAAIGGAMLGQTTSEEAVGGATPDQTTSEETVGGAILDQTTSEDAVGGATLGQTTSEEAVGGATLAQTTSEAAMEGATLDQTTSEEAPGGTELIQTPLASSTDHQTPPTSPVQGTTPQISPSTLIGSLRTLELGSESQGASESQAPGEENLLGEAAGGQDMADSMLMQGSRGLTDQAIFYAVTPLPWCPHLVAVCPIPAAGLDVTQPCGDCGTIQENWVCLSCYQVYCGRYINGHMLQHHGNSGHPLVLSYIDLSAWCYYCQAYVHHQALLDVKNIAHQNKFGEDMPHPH
Description: as §1

[5] = PET/CT imaging in nude mice bearing U87MG xenograft tumor; format: in vivo; conditions: mouse, 90 min post injection
Description: Materials and methods: The PET imaging properties of [^68Ga]FSC(succ-RGD)3 were studied in nude mice bearing M21 human melanoma xenografts and human glioblastoma U87MG xenograft tumor. A parallel PET imaging of ^68GaNODAGA-RGD in same mouse bearing U87MG xenograft tumor was performed as a comparison.

[6] = Description: Methods: Labelling was carried out in a remote controlled synthesis unit under clean room conditions. Quality control included TLC, HPLC, GC, pH control, Ge-breakthrough, half-life, endotoxin content, and control of sterility. Storage stability after 4 h was studied and dose estimations based on animal data were carried out using OLINDA. Sprague-Dawley rats were used for an extended single dose toxicity study. The phase I clinical study included 9 patients with hepatocellular carcinoma (HCC). Static scans at 5, 30, and 60 min p.i. including 5 bed positions each were performed using the Discovery 690 PET/CT. Blood was sampled 30 and 60 min p.i. and urine 60 min p.i. and used for stability studies via HPLC.
[7] = Extended single dose toxicity study in Sprague-Dawley rats; format: in vivo
U87MG tumor = test system: U87MG tumor
Description: Materials and Methods: The radiolabelling was performed using an automated system with inline quality control. Fraction of 68GaCl3 eluate from an organic matrix based 68Ge/68Ga generator, 400-700 MBq in 2 mL, was used to label NOTA/NODAGA/DOTA-derivatised cRGD peptides. Elution, labeling and purification procedures were performed in 20-25 min. The biodistribution was tested in tumor bearing animal models (U87MG, Walker 256, B21 and AR42J). The affinity of cyclo-RGD peptides to tumor cell-surface receptors was determined by real-time quantification using Ligand Tracer.

AR42J and U87MG = assay: Real-time binding and retention on tumor cells (Ligand Tracer); format: cell-based
Description: Materials and Methods: The radiolabelling was performed using an automated system with inline quality control. Fraction of 68GaCl3 eluate from an organic matrix based 68Ge/68Ga generator, 400-700 MBq in 2 mL, was used to label NOTA/NODAGA/DOTA-derivatised cRGD peptides. Elution, labeling and purification procedures were performed in 20-25 min. […] The affinity of cyclo-RGD peptides to tumor cell-surface receptors was determined by real-time quantification using Ligand Tracer.

## O=C(O)CCc1ccc(O)c(CN(CCN(CC(=O)O)Cc2cc(CCC(=O)NCCCCCC(=O)NCCCC[C@H](NC(=O)N[C@@H](CCC(=O)O)C(=O)O)C(=O)O)ccc2O)CC(=O)O)c1 [68Ga-PSMA-11, Glu-CO-Lys(Ahx)-HBED-CC, metal not drawn]
[1]
  urine elimination: > 70%

## CC(C)[C@H](NC(=O)[C@@H]1CCCN1C(=O)[C@H](CCCNC(=N)N)NC(=O)[C@@H]1CCC(=O)NCCCC[C@H](NC(=O)CCNC(=O)CCCCCNC(=O)[C@@H](N)CS)C(=O)N[C@@H](CCC(=O)O)C(=O)N[C@@H](Cc2c[nH]cn2)C(=O)N[C@H](Cc2ccccc2)C(=O)N[C@@H](CCCNC(=N)N)C(=O)N[C@@H](Cc2c[nH]c3ccccc23)C(=O)N1)C(N)=O [NAP_NS2, H-Cys-Ahx-βAla^3-c[Lys^4-Glu-His-D-Phe-Arg-Trp-Glu^10]-Arg^11-Pro-Val-NH2] (H-C[Ahx][βAla]KEH[dF]RWERPV-NH2; lactam 4-10)
MC1R
  Ki: 7.1 ± 2.4 nM

## C[C@@](Cc1c[nH]c2ccccc12)(NC(=O)Nc1ccc([N+](=O)[O-])cc1)C(=O)NCC1(c2ccc(OCCF)cn2)CCCCC1 [PD-410, (S)-3-(1H-indol-3-yl)-N-[1-[5-(2-fluoroethoxy)pyridin-2-yl]cyclohexylmethyl]-2-methyl-2-[3-(4-nitrophenyl)ureido]propionamide]
GRP receptors
  Ki: 38 ± 2 nM

## COc1ccc(-c2nc3cc(F)ccc3s2)cc1OC [PMX 610, 2-(3,4-dimethoxyphenyl)-5-fluorobenzothiazole]
[2]
  GI50: < 0.1 nM

## O=C(CCCCCCC(=O)Nc1ccccc1)NO [SAHA, Suberoylanilide hydroxamic acid]
HDAC6 [3]
  displacement of [11C]KB631 binding, brain: 73%
HDAC6 [4]; LNCaP tumor slices
  displacement of [11C]KB631 binding, LNCaP: 59%
HDAC6 [4]; PC3 tumor slices
  displacement of [11C]KB631 binding, PC3: 39%

## N=C(N)NCCC[C@@H]1NC(=O)[C@H](CCCCNC(=O)CCC(C(=O)O)N2CCN(CC(=O)O)CCN(CC(=O)O)CC2)NC(=O)[C@@H](Cc2ccccc2)NC(=O)[C@H](CC(=O)O)NC(=O)CNC1=O (stereo partly drawn) [[68Ga]NODAGA-RGD, metal not drawn]
[5]; tumour and kidneys, read-out: tumor/kidneys ratio
  tissue to tissue ratio at […]: 1.6
[5]; tumour and muscle, read-out: tumor/muscle ratio
  tissue to tissue ratio at […]: 5
[6]; 9 patients with HCC
  side effects in clinical study: no severe side effects were observed
[6]; human, in vivo
  calculated effective dose: 21.5±5.4 μSv/MBq
[6]; patient blood (30, 60 min p.i.) and urine (60 min p.i.), HPLC
  metabolic stability: High metabolic stability
[7]
  tolerability in single dose toxicity study: well tolerated in animals

## DOTA-E-[c(RGDfK)2] (head to tail) [68Ga-DOTA-E-[c(RGDfK)2], 68Ga-labelled dimeric cyclo-RGD peptide]
U87MG tumor
  tumor uptake: Up to 5.3 % ID/g
AR42J and U87MG
  retention, from activity in the cells: up to 58%
